Each cell line was assayed with C(C(=O)C(=O)O)Br [Bromopyruvate] + Nc1ncn([C@H]2C[C@H](O)[C@@H](CO)O2)c(=O)n1 [Decitabine] (partner 2 µM) (assay: relative viability (nuclei count vs DMSO), 5 days (fraction); higher = more cells survive). Conditions: first compound 100 µM.
Summary of the method: (§1)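 Cells from lung cancer lines were seeded into 1536-well plates and, one day later, dosed by pin tool. Treatments were either a single drug or a fixed dose of an anchor drug with five library-drug doses (not always all listed) in √10 steps. After 5 days, nuclei were stained in a one-step fixation (final 0.05% Triton X-100, 1% formaldehyde, 1 ug/ml Hoechst) and counted on 4× images, and relative viability is the treated-to-vehicle nuclei ratio, as the median of duplicate plates.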

Cell Line	relative viability
LXF-289	0.397
NCI-H2347	0.635
NCI-H650	0.26
NCI-H1651	0.588
EPLC-272H	0.389
NCI-H23	0.303
NCI-H1792	0.555
NCI-H1355	0.336
NCI-H322M	0.669
NCI-H1437	0.577
NCI-H1755	0.659
NCI-H2085	0.526
HCC-15	0.568
PC-3 [JPC-3]	0.738
EKVX	0.331
LC-2-ad	0.695
NCI-H1975	0.413
SK-LU-1	0.623
NCI-H661	0.523

The cell lines below were run with C(C(=O)C(=O)O)Br [Bromopyruvate] + CC(=O)Nc1cccc(-n2c(=O)n(C3CC3)c(=O)c3c(Nc4ccc(I)cc4F)n(C)c(=O)c(C)c32)c1 [Trametinib] (partner 0.02 µM) in the same assay as above. Conditions: first compound 1 µM.
Summary of the method: as §1

Cell Line	relative viability
BEN	1.03
HARA	0.709
HCC-78	0.746
NCI-H441	0.47
LCLC-97TM1	0.193
NCI-H2023	0.55
A-427	0.73
NCI-H460	0.164
NCI-H727	0.42
NCI-H1734	0.743
NCI-H520	0.653
NCI-H2405	0.735
SW 1573	0.582
201T	0.709
NCI-H1915	0.308
HCC-827	0.51
LXF-289	0.671
NCI-H2347	0.224

Cell Line	relative viability
NCI-H650	0.971
NCI-H1651	0.817
EPLC-272H	0.266
NCI-H23	0.371
NCI-H1792	0.392
NCI-H1355	0.415
NCI-H322M	0.525
NCI-H1437	0.552
NCI-H1755	0.827
NCI-H2085	0.559
HCC-15	0.349
PC-3 [JPC-3]	0.734
EKVX	0.368
LC-2-ad	0.892
NCI-H1975	0.361
SK-LU-1	0.503
NCI-H661	0.546

Same assay, conditions: first compound 3.162 µM

Cell Line	relative viability
BEN	0.983
HARA	0.814
HCC-78	0.681
NCI-H441	0.529
LCLC-97TM1	0.188
NCI-H2023	0.483
A-427	0.766
NCI-H460	0.101
NCI-H727	0.376
NCI-H1734	0.765
NCI-H520	0.716
NCI-H2405	0.739
SW 1573	0.576
201T	0.719
NCI-H1915	0.293
HCC-827	0.542
LXF-289	0.653

Cell Line	relative viability
NCI-H2347	0.28
NCI-H650	1.02
NCI-H1651	0.866
EPLC-272H	0.278
NCI-H23	0.375
NCI-H1792	0.448
NCI-H1355	0.467
NCI-H322M	0.537
NCI-H1437	0.529
NCI-H1755	0.831
NCI-H2085	0.685
HCC-15	0.385
EKVX	0.381
LC-2-ad	0.904
NCI-H1975	0.334
SK-LU-1	0.469
NCI-H661	0.588

Same assay, conditions: first compound 10 µM

Cell Line	relative viability
BEN	1.18
HCC-78	0.955
NCI-H441	0.506
LCLC-97TM1	0.2
NCI-H2023	0.517
A-427	0.838
NCI-H460	0.132
NCI-H727	0.461
NCI-H1734	0.64
NCI-H520	0.755
NCI-H2405	0.764
SW 1573	0.608
201T	0.709
NCI-H1915	0.296
HCC-827	0.579
LXF-289	0.627
NCI-H2347	0.335

Cell Line	relative viability
NCI-H650	0.928
NCI-H1651	0.891
EPLC-272H	0.341
NCI-H23	0.346
NCI-H1792	0.382
NCI-H1355	0.335
NCI-H322M	0.517
NCI-H1437	0.556
NCI-H1755	0.722
NCI-H2085	0.516
HCC-15	0.386
PC-3 [JPC-3]	0.787
EKVX	0.334
LC-2-ad	0.872
NCI-H1975	0.329
SK-LU-1	0.599
NCI-H661	0.579

Same assay, conditions: first compound 31.62 µM

Cell Line	relative viability
BEN	0.97
HARA	0.633
HCC-78	0.71
NCI-H441	0.526
LCLC-97TM1	0.165
NCI-H2023	0.562
A-427	0.767
NCI-H460	0.18
NCI-H727	0.428
NCI-H1734	0.717
NCI-H520	0.637
SW 1573	0.432
201T	0.725
NCI-H1915	0.342
HCC-827	0.551
LXF-289	0.693
NCI-H2347	0.248

Cell Line	relative viability
NCI-H650	0.955
NCI-H1651	0.825
EPLC-272H	0.302
NCI-H23	0.354
NCI-H1792	0.364
NCI-H1355	0.452
NCI-H322M	0.536
NCI-H1437	0.506
NCI-H1755	0.768
NCI-H2085	0.563
HCC-15	0.369
EKVX	0.448
LC-2-ad	0.958
NCI-H1975	0.345
SK-LU-1	0.467
NCI-H661	0.523

Same assay, conditions: first compound 100 µM

Cell Line	relative viability
BEN	1.2
HARA	1
HCC-78	0.72
NCI-H441	0.458
LCLC-97TM1	0.277
NCI-H2023	0.482
A-427	0.771
NCI-H460	0.235
NCI-H727	0.36
NCI-H1734	0.66
NCI-H520	0.646
NCI-H2405	0.684
SW 1573	0.0469
201T	0.755
NCI-H1915	0.349
HCC-827	0.568
LXF-289	0.67
NCI-H2347	0.274

Cell Line	relative viability
NCI-H650	0.991
NCI-H1651	0.836
EPLC-272H	0.289
NCI-H23	0.336
NCI-H1792	0.435
NCI-H1355	0.445
NCI-H322M	0.5
NCI-H1437	0.484
NCI-H1755	0.796
NCI-H2085	0.341
HCC-15	0.393
PC-3 [JPC-3]	0.734
EKVX	0.378
LC-2-ad	0.945
NCI-H1975	0.365
SK-LU-1	0.538
NCI-H661	0.603

The cell lines below were run with CC(O)(CS(=O)(=O)c1ccc(F)cc1)C(=O)Nc1ccc(C#N)c(C(F)(F)F)c1 [Bicalutamide] + C[C@@H](Oc1cc(-c2cnn(C3CCNCC3)c2)cnc1N)c1c(Cl)ccc(F)c1Cl [Crizotinib] (partner 1 µM) in the same assay as above. Conditions: first compound 0.08 µM.
Summary of the method: as §1

Cell Line	relative viability
BEN	0.773
HARA	0.946
HCC-78	0.355
NCI-H441	0.917
LCLC-97TM1	0.478
NCI-H2023	0.691
A-427	0.934
NCI-H460	0.896
NCI-H727	0.928
NCI-H1734	0.667
NCI-H520	0.836
NCI-H2405	0.913
SW 1573	0.972
201T	1.04
NCI-H1915	0.873
HCC-827	0.922
LXF-289	0.815
NCI-H2347	0.797

Cell Line	relative viability
NCI-H650	0.725
NCI-H1651	0.868
EPLC-272H	0.947
NCI-H23	0.495
NCI-H1792	0.922
NCI-H1355	1.12
NCI-H322M	1.05
NCI-H1437	0.899
NCI-H1755	0.901
NCI-H2085	0.904
HCC-15	0.82
PC-3 [JPC-3]	1.02
EKVX	0.924
LC-2-ad	0.495
NCI-H1975	0.97
SK-LU-1	0.936
NCI-H661	1.14

Same assay, conditions: first compound 0.253 µM

Cell Line	relative viability
BEN	0.778
HARA	1.07
HCC-78	0.362
LCLC-97TM1	0.369
NCI-H2023	0.601
A-427	0.967
NCI-H460	0.798
NCI-H727	0.85
NCI-H1734	0.553
NCI-H520	0.681
NCI-H2405	0.817
SW 1573	0.761
201T	0.942
NCI-H1915	0.815
HCC-827	0.911
LXF-289	0.79
NCI-H2347	0.621

Cell Line	relative viability
NCI-H650	0.645
NCI-H1651	0.861
EPLC-272H	0.898
NCI-H23	0.467
NCI-H1792	0.888
NCI-H1355	0.993
NCI-H322M	0.858
NCI-H1437	0.893
NCI-H1755	0.803
NCI-H2085	0.822
HCC-15	0.767
PC-3 [JPC-3]	1.07
EKVX	0.81
LC-2-ad	0.427
NCI-H1975	0.915
SK-LU-1	0.967

Same assay, conditions: first compound 0.8 µM

Cell Line	relative viability
BEN	1.14
HARA	1.19
HCC-78	0.37
NCI-H441	0.598
LCLC-97TM1	0.317
NCI-H2023	0.679
A-427	0.915
NCI-H460	1.28
NCI-H727	0.936
NCI-H1734	0.798
NCI-H520	0.93
NCI-H2405	0.962
SW 1573	1.08
201T	1.01
NCI-H1915	0.969
HCC-827	0.942
LXF-289	0.797
NCI-H2347	0.689

Cell Line	relative viability
NCI-H650	0.932
NCI-H1651	0.912
EPLC-272H	1.01
NCI-H23	0.493
NCI-H1792	1.02
NCI-H1355	1.14
NCI-H322M	1.16
NCI-H1437	0.895
NCI-H1755	0.849
NCI-H2085	0.816
HCC-15	1.01
PC-3 [JPC-3]	1.06
EKVX	1.14
LC-2-ad	0.462
NCI-H1975	1.08
SK-LU-1	1.08
NCI-H661	0.881

Same assay, conditions: first compound 2.53 µM

Cell Line	relative viability
BEN	0.866
HARA	1.09
HCC-78	0.319
NCI-H441	0.61
LCLC-97TM1	0.301
NCI-H2023	0.462
A-427	0.804
NCI-H460	0.825
NCI-H727	0.781
NCI-H1734	0.616
NCI-H520	0.577
NCI-H2405	0.837
SW 1573	0.721
201T	1.06
NCI-H1915	0.889
HCC-827	0.952
LXF-289	0.807
NCI-H2347	0.675

Cell Line	relative viability
NCI-H650	0.438
NCI-H1651	0.892
EPLC-272H	0.833
NCI-H23	0.399
NCI-H1792	1.02
NCI-H1355	1.04
NCI-H322M	0.868
NCI-H1437	0.923
NCI-H1755	0.791
NCI-H2085	0.745
HCC-15	0.882
PC-3 [JPC-3]	1.02
EKVX	0.801
LC-2-ad	0.482
NCI-H1975	0.781
SK-LU-1	0.854
NCI-H661	0.989

Source: the supplement of paper PMC10307832
